Experimental data reported in patent US7205002B2, “Method of making, and the use of cytotoxic agents containing elemental selenium” (MCW Research Foundation, Inc., priority 2002, dated 2007).
Where two headings read alike, the source gives them in different places. * marks the point of attachment. Cbz = O=C(OCc1ccccc1)*; CH2F = FC*

How the values were obtained:
[1] = tested on: normal murine granulocyte/macrophage progenitors (mCFU-GM); assay: Surviving fraction after 45 min exposure, in vitro clonal assay; type: cell-based; conditions: 10 μg/ml
Protocol: (§1) Cytotoxic Se(0)-protein conjugates were generated by exposing alpha-medium supplemented with fetal bovine serum (10%) and selenomerocyanine photosensitizer MC54 (26 μM) to cool white fluorescent light (fluence rate: 27 W/m^2) for 60 min. Wild-type L1210 leukemia cells, melphalan-resistant mutant L1210/L-PAM1 cells, or normal murine granulocyte/macrophage progenitors (mCFU-GM) (10^6/ml) were suspended either in cytotoxic conjugates or in alpha-medium supplemented with 4-HC (10 μg/ml) and incubated for 45 min at 37° C. Treatment conditions were selected to achieve a similar recovery of normal murine hematopoietic progenitor cells (mCFU-GM). Cells were washed free of excess conjugates or drug, and surviving fractions were determined by in vitro clonal assay.

[2] = tested on: Wild-type L1210 leukemia cells; assay: as above; type: cell-based, murine; conditions: 10 μg/ml
Protocol: as §1

[3] = tested on: melphalan-resistant mutant L1210/L-PAM1 cells; assay: as above; type: cell-based, murine; conditions: 10 μg/ml
Protocol: as §1

L1210 leukemia cells = assay: Cytotoxic activity of conjugates formed by dye photoproducts and serum (lipo)proteins, in vitro clonal assay; type: cell-based, murine
Protocol: The mixtures were exposed to white light (27 W/m^2) for 60 min as deescribed above. […] To assess cytotoxic activity, cytotoxic conjugates were made isotonic by the addition of an appropriate volume of double-concentrated alpha-medium and incubated with L1210 leukemia cells for 60 min at 37° C. The surviving fraction of in vitro clonogenic leukemia cells was determined by in vitro clonal assay as described in Sieber, F. et al., 1984, which is incorporated by reference in its entirety. […] The fluorescence yield of fluorescent photoproduct-albumin conjugates was determined with a Hitachi F4500 fluorescence spectrophotometer. All samples were serially diluted with buffer to rule out artifacts due to self-quenching. In vitro clonal assays of L1210 murine leukemia cells were used to assess cytotoxic activity.

tumor cells = assay: Interactions of conjugates with ionizing radiation and standard chemotherapeutic agents; conditions: 30 min pretreatment, nontoxic 3 mg/ml
Excerpt: Alternatively, 5 or 6 doses of conjugates were used in combination with one or two doses of a drug. Depending on the combination, the two agents were applied either sequentially or simultaneously. […] For each combination, two or more target cells were selected from the following panel of tumor cell lines: L1210 and HL-60/ADR leukemia cells, PC3 and DU145 prostate cancer cells, H69 lung cancer cells, Mm5MT, MDA-MB-23 1, MDA-MB-435 and C1271 breast cancer cells, and SK-ES-1 Ewing's sarcoma cells.

[4] = tested on: DU145 prostate cancer cells; assay: Cytotoxicity of conjugates alone or in combination; type: cell-based, human
Protocol: The study was conducted with DU145 human prostate cancer cells. The protein source was fetal bovine serum, and the data points are means of 4 plates±SE.

[5] = tested on: PC3 prostate cancer cells; assay: Cytotoxicity of conjugates in combination; type: cell-based
[6] = tested on: MDA-MB-435 breast cancer cells; assay: Cytotoxicity of conjugates in combination; type: cell-based, human; conditions: 0.5 mM; 20 hours
[7] = tested on: caspase activity in L1210 leukemia cells; assay: Caspase Detection Kit (FITC-VAD-FMK) with specific peptide inhibitors; type: cell-based, murine; conditions: inhibitor 0.1 mM, 37° C., 1 hour
Protocol: Conjugates were derived from MC56 to avoid a spectral interference with the fluorescent caspase substrate. The protein source was fetal bovine serum. Caspase inhibitors were used as recommended by the manufacturer (R&D Systems). That is, each sample contained 10^6 cells, and the final concentration of inhibitors was 0.1 mM. Incubation was at 37° C. for 1 hour. […] In FIG. 12, the “Z-” prefix and the “-FMK” suffix are omitted because of space limitations.
We have used the Oncogene (San Diego, Calif.) Caspase Detection Kit to monitor caspase activity in L1210 leukemia cells after exposure to cytotoxic Se(0)-protein conjugates. The kit uses a fluorescent substrate (FITC-VAD-FMK; a conjugate of fluoresceinisothiocyanate with a fluoromethylketone-derivaticed short peptide) that detects a broad range of caspases. When FITC-VAD-FMK is used in conjunction with non-cytotoxic concentrations of specific peptide inhibitors (R&D Systems, Minneapolis, Minn.), the inhibition of the fluorescent signal is directly proportional to the contribution of the respective caspases to the overall signal. […] Caspases 2, 4 and 9 show moderate activation whereas caspases 1, 3, 6 and 8 show little or no activity. […]

[8] = in vivo; cited from earlier work
female B6D2F1 mice = assay: Acute systemic toxicity, intraperitoneal injection; type: in vivo; conditions: MC54 26 μM with equimolar bovine serum albumin; 1-ml i.p. injection on 1 to 5 consecutive days
Protocol: Acute Systemic Toxicity of Photoproduct-Protein Conjugates in Mice: In an initial acute toxicity study, groups of 5 female B6D2F1 mice were injected intraperitoneally with photoproduct-protein conjugates. The photoproduct-protein conjugates were generated by photobleaching the selenomerocyanine MC54 (26 μM) in the presence of an equimolar concentration of bovine serum albumin. Group 1 received one 1-ml intraperitoneal injection of this conjugate. Groups 2 through 5 received the same injection of conjugates on 2, 3, 4, or 5 consecutive days, respectively.
The second toxicity experiment used conjugates that had been prepared with a dye-to-protein ratio of 5:1. Since MC54 was added from stock solutions in ethanol, the mice of the second series were exposed to 5-fold higher doses of ethanol.

O=P1(N(CCCl)CCCl)NC(OO)CCO1 (stereo not shown) [Dye 4-HC, 4-Hydroperoxycyclophosphamide]
Surviving Fraction [1]: 0.0088 ± 0.0025
Surviving Fraction [2]: 0.0460 ± 0.0043
Surviving Fraction [3]: 0.2636 ± 0.0074

CCO [Ethanol]
Cytotoxic Activity (L1210 leukemia cells; MC54-derived photoproducts with the given solvent/protein): no

CCCCN1C(=O)C(=C/C=C/C=C2\Oc3ccccc3N2CCCS(=O)(=O)[O-])C(=O)N(CCCC)C1=S.[Na+] [MC540]
Cytotoxic Activity (L1210 leukemia cells): no

NCCCNCCSP(=O)(O)O [amifostine]
Effect of pretreatment on response to cytotoxic conjugates (tumor cells): sensitized tumor cells to cytotoxic conjugates

CCCCS(=N)(=O)CCC(N)C(=O)O (stereo not shown) [buthionine sulfoximine]
Effect of pretreatment on response to conjugates ([4]; 0.5 mM, 20 hours): improved the response
Effect of pretreatment on response to conjugates ([5]; 0.5 mM, 20 hours): little or no effect
Effect of pretreatment on response to conjugates [6]: little or no effect

N.N.[Cl][Pt][Cl] [cisplatin]
Antitumor effect, sequential exposure with conjugates ([4]; sequential exposure): additive
Antitumor effect, sequential exposure with conjugates ([5]; sequential exposure): additive

Bovine serum albumin: carrier protein for conjugates with MC54-derived photoproducts
Cytotoxic Activity (L1210 leukemia cells): yes

Carboxymethylated bovine serum albumin: commercial product from Sigma Chemical Co.
Cytotoxic Activity (L1210 leukemia cells): no

Cbz-Val-Ala-Asp-CH2F
Inhibition of the fluorescent caspase signal [7]: reduced the fluorescence signal more than any of the specific inhibitors

Fetal bovine serum
Cytotoxic Activity (L1210 leukemia cells): yes

albumin
Cytotoxicity of conjugates by carrier (lipo)protein (L1210 leukemia cells): more cytotoxic than conjugates formed by HDL
half-life [8]: approximately 19 days

photoproduct-protein conjugates: generated by photobleaching the selenomerocyanine MC54 (26 μM) in the presence of an equimolar concentration of bovine serum albumin
Signs of toxicity (female B6D2F1 mice): None of the animals showed signs of acute or chronic toxicity
Survival (female B6D2F1 mice): All animals survived
